Experiments:
Type in all cases: in vivo
[1] = tested on: Guinea Pig Chronic Obstructive Pulmonary Disease (COPD) Model; test: Airway resistance (sRaw) in guinea pig COPD model (cigarette smoke exposure); settings: 10 mg/kg/day oral; 1 week of cigarette smoke exposure; mean ± SEM of 8 animals
Experimental: (§1) An evaluation was carried out as follows according to a report of Kosuke MORIZUMI, Junichi FUCHIGAMI et al., 2002, The 75th Annual Meeting of the Japanese Pharmacological Society (2002) Abstract No. P-259, “Study of a chronic obstructive pulmonary disease-Effects of theophylline on respiratory function and lung function of guinea pigs in an exposure of cigarette smoke.”
(§2) Male Hartley strain guinea pigs (purchased from Japan SLC, Inc.) were taken in a cigarette exposure holder (RMH-TUBES, manufactured by Muenster Ltd.) to secure them to an exposure chamber (Flow-past type nose-only inhalation chamber, manufactured by Muenster Ltd.), and allowed to inhale cigarette smoke (Hi-Lite, manufactured by Japan Tobacco Inc.) for 60 minutes per day for 5 days in a week, totally 4 weeks using a smoking exposure equipment (Hamburg II, manufactured by Borgwaldt Technik), while the exposure was carried out for 4 days in the 4th week. • (2) Drug Administrations
(§3) Each 0.5% MC suspension of a test drug was orally administered daily in 5 ml/weight (kg) once a day for 25 days from the first day of the exposure. To a sham-exposure group and a control group was orally administered a 0.5% MC suspension in a similar manner. Any oral administrations were carried out 0.5 to 1 hours before exposures on a cigarette-smoke-exposure day or after measurements when measuring respiratory functions. A drug was not administered on the day for measurement of respiratory functions after finishing the 4th week of the exposure. • (3) Measurements of Airway Resistance
Specific airway resistances (sRaw) in guinea pigs were measured during awakening by double-flow plethysmography using general respiratory function analysis system (PULMOS-I, manufactured by M•I•P•S Corp.). Measurements were carried out before the exposure and on the day after finishing the 1st, 2nd, 3rd and 4th weeks of the exposure. Each 100 breathings of respiratory functions were individually measured, and the average values were obtained as measured values. A rate of change of airway resistances was calculated by the following equation. Rate of change of each measured week (%)=100×(a measured value on each measured date−a measured value before starting exposures of cigarette smoke)/a measured value before starting exposures of cigarette smoke

[2] = tested on: Guinea Pig Chronic Obstructive Pulmonary Disease (COPD) Model; test: Inflammatory cells in bronchoalveolar fluid in guinea pig COPD model; settings: 10 mg/kg/day oral; mean ± SEM of 8 animals
Experimental: as §1, §2, §3
After measuring lung functions, animals were exsanguinated to death and opened the thorax, ligated the left bronchial bifurcation, and then injected saline (2.5 mL) into the right lung and aspirated the same via fixed cannula on measuring lung functions repeatedly in twice (totally 5 mL), and the recovery solution was obtained as a bronchoalveolar lavage fluid (BALF). BALF was centrifuged (230×g, 4° C., for 10 minutes) to give cell pellets. The pellets were suspended in saline (0.5 mL), and to a part of the suspension was added Turk solution (manufactured by Wako Pure Chemical Industries, Ltd.) so as to dilute 10 to 20 folds. Leukocyte numbers per 0.1 μL were measured by a blood cell counting chamber and leukocyte numbers per 1 μL were calculated. Cell suspensions were prepared again, smears were prepared using about 2000 to 3000 total cell numbers, May-Grunwald-Giemsa stain was carried out, leukocyte numbers were counted under the microscope, a ratio of each leukocyte number to total leukocyte number was obtained, and each cell number per 1 μL was calculated based on the ratio. Results are shown in each cell number per 1 μL.

[3] = tested on: Guinea Pig Chronic Obstructive Pulmonary Disease (COPD) Model; test: Histological investigations of lung in guinea pig COPD model; settings: 10 mg/kg/day for 25 days; 8 animals
Experimental: as §1, §2, §3
After collection of BALF, trachea and lung were isolated. The ligation site of the left lung was opened, injected neutral formalin buffer into trachea, bronchi and lung at the pressure of 20 cm H2O via cannula fixed on the side of the lung, and the lung tissue was extended to be fixed. According to a conventional method, tissue section samples were produced using posterior lobe of the left lung and hematoxylin-eosin (HE) stain was carried out. Any other lung tissues were stored in neutral formalin buffers. Drug efficacies of the produced tissue samples were evaluated by scoring tissue changes under the microscope. The criteria of scores were shown as follows: −: none, ±: minimal, +: mild, ++: moderate, +++: severe. Each quantification was calculated as 0, 1, 2, 3, 4.

[4] = tested on: Guinea Pig Chronic Obstructive Pulmonary Disease (COPD) Model; test: Lung functions (FRC, RV) in guinea pig COPD model; settings: 10 mg/kg/day oral; after 4th week of exposure; mean ± SEM of 8 animals
Experimental: as §1, §2, §3
After measuring airway resistances in the 4th week, animals were cut open their tracheas under urethane-anesthetizing ([…], i.p.), cannulated on the side of lung, fixed by ligation, and measured residual volumes (RV) and functional residual capacities (FRC) by lung functions measuring system (Biosystem for maneuver, manufactured by Buxco Electronics).

What does the source list for `Cn1c(=O)c2[nH]cnc2n(C)c1=O` [theophylline, Theophylline, reference compound]?
Specific airway resistance (sRaw) % increase from pre value [1]: 15.02 ± 6.73%; Cell number in BALF, Macrophage [2]: 2068 ± 362 cells/μL; Cell number in BALF, Neutrophil [2]: 1072 ± 322 ^NS cells/μL; Cell number in BALF, Total [2]: 3578 ± 583 cells/μL; Number of animals with grade + (mild): A. Hyperplasia, epithelial cell, bronchus [3]: 0; Number of animals with grade + (mild): B. Cellular exudation, neutrophil/eosinophil, lumen, bronchiole [3]: 0; Number of animals with grade + (mild): C. Thickening, alveolar wall [3]: 1; Number of animals with grade + (mild): D. Accumulation, foamy/macrophage-like cell, alveolus [3]: 1; Number of animals with grade + (mild): E. Cellular infiltration, neutrophil, alveolus [3]: 0; Number of animals with grade ++ (moderate): A. Hyperplasia, epithelial cell, bronchus [3]: 0; Number of animals with grade ++ (moderate): B. Cellular exudation, neutrophil/eosinophil, lumen, bronchiole [3]: 0; Number of animals with grade ++ (moderate): C. Thickening, alveolar wall [3]: 0; Number of animals with grade ++ (moderate): D. Accumulation, foamy/macrophage-like cell, alveolus [3]: 0; Number of animals with grade ++ (moderate): E. Cellular infiltration, neutrophil, alveolus [3]: 0; Number of animals with grade +++ (severe): A. Hyperplasia, epithelial cell, bronchus [3]: 0; Number of animals with grade +++ (severe): B. Cellular exudation, neutrophil/eosinophil, lumen, bronchiole [3]: 0; Number of animals with grade +++ (severe): C. Thickening, alveolar wall [3]: 0; Number of animals with grade +++ (severe): D. Accumulation, foamy/macrophage-like cell, alveolus [3]: 0; Number of animals with grade +++ (severe): E. Cellular infiltration, neutrophil, alveolus [3]: 0; Number of animals with grade ± (minimal): A. Hyperplasia, epithelial cell, bronchus [3]: 1; Number of animals with grade ± (minimal): B. Cellular exudation, neutrophil/eosinophil, lumen, bronchiole [3]: 0; Number of animals with grade ± (minimal): C. Thickening, alveolar wall [3]: 0; Number of animals with grade ± (minimal): D. Accumulation, foamy/macrophage-like cell, alveolus [3]: 1; Number of animals with grade ± (minimal): E. Cellular infiltration, neutrophil, alveolus [3]: 1; Number of animals with grade − (none): A. Hyperplasia, epithelial cell, bronchus [3]: 7; Number of animals with grade − (none): B. Cellular exudation, neutrophil/eosinophil, lumen, bronchiole [3]: 8; Number of animals with grade − (none): C. Thickening, alveolar wall [3]: 7; Number of animals with grade − (none): D. Accumulation, foamy/macrophage-like cell, alveolus [3]: 6; Number of animals with grade − (none): E. Cellular infiltration, neutrophil, alveolus [3]: 7; Functional residual capacity (FRC) [4]: 6.916 ± 0.234 mL; Residual volume (RV) [4]: 1.962 ± 0.417 mL

— patent US8012971B2, “Therapeutic agent for chronic obstructive pulmonary disease” (Dainippon Sumitomo Pharma Co., Ltd., priority 2005, dated 2011)
